Results as given in ChEMBL document CHEMBL1821607, “N-Arylalkyl-2-azaadamantanes as cage-expanded polycarbocyclic sigma (σ) receptor ligands” (Bioorg Med Chem Lett, 2011).

Columns and labels:
[1] = molecular target: Histamine H2 receptor (Homo sapiens) (UniProt P25021); test: Inhibition of H2 receptor at 10 uM by NIMH PDSP
[2] = molecular target: 5-hydroxytryptamine receptor 1D (Homo sapiens) (UniProt P28221); test: Inhibition of 5-HT1D receptor at 10 uM by NIMH PDSP
[3] = molecular target: T1, 5-hydroxytryptamine receptor 1A (Homo sapiens) (UniProt P08908); test: Inhibition of 5-HT1A receptor at 10 uM by NIMH PDSP
T1 sequence (whole entry): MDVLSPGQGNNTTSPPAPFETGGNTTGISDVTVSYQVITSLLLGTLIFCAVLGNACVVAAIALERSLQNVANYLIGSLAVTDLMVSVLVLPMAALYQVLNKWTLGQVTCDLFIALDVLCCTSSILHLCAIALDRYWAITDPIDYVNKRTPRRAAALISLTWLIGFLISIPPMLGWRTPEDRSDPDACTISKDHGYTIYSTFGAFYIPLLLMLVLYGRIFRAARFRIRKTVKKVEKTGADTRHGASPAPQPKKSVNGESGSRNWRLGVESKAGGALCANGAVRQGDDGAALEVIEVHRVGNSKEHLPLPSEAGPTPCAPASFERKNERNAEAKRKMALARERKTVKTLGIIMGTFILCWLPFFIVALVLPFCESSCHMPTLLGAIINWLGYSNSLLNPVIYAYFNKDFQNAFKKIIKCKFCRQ

[4] = molecular target: 5-hydroxytryptamine receptor 5A (Homo sapiens) (UniProt P47898); test: Inhibition of 5-HT5A receptor at 10 uM by NIMH PDSP
[5] = molecular target: T2, Alpha-1B adrenergic receptor (Homo sapiens) (UniProt P35368); test: Inhibition of alpha-1B adrenergic receptor at 10 uM by NIMH PDSP
T2 sequence (whole entry): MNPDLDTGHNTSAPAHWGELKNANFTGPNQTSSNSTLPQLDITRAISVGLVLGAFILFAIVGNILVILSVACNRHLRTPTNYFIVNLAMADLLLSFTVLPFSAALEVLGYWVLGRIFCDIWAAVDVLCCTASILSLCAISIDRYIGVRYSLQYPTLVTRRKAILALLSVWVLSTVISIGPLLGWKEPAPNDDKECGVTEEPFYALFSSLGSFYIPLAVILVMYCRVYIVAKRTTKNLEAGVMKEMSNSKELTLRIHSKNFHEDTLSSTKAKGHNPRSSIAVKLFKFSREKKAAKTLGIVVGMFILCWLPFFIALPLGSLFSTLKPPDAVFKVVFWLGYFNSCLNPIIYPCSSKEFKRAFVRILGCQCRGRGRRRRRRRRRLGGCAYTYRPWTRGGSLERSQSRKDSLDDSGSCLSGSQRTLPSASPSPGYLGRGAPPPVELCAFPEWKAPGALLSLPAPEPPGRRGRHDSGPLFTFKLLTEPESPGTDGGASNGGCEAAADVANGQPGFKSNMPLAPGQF

[6] = molecular target: Muscarinic acetylcholine receptor M3 (Homo sapiens) (UniProt P20309); test: Inhibition of M3 muscarinic receptor at 10 uM by NIMH PDSP
[7] = Inhibition of GABAA receptor at 10 uM by NIMH PDSP
[8] = molecular target: Histamine H4 receptor (Homo sapiens) (UniProt Q9H3N8); test: Inhibition of H4 receptor at 10 uM by NIMH PDSP
[9] = molecular target: Sigma non-opioid intracellular receptor 1 (Cavia porcellus, UniProt Q60492); test: Displacement of [3H](+)-pentazocine from sigma 1 receptor in guinea pig brain homogenates after 90 mins by scintillation counting; type: tissue-based
[10] = Displacement of [3H]DTG from sigma 2 receptor in rat liver homogenates in presence of sigma-1 receptor blocker (+)-pentazocine after 120 mins by liquid scintillation counting; type: tissue-based
[11] = molecular target: D(1B) dopamine receptor (Homo sapiens) (UniProt P21918); test: Inhibition of D5 dopamine receptor at 10 uM by NIMH PDSP
[12] = molecular target: T3, D(4) dopamine receptor (Homo sapiens) (UniProt P21917); test: Inhibition of D4 dopamine receptor at 10 uM by NIMH PDSP
T3 sequence (whole entry): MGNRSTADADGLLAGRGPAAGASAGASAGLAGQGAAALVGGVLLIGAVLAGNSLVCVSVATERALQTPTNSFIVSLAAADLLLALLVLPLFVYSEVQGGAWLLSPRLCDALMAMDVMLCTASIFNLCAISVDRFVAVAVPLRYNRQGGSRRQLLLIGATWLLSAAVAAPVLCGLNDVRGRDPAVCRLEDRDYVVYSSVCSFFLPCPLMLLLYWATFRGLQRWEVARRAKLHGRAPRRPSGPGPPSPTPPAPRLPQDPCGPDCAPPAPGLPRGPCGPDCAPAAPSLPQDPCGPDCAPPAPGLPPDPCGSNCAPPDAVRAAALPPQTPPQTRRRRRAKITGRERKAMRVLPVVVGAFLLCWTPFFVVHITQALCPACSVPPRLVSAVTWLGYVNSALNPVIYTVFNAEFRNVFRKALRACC

[13] = molecular target: Beta-2 adrenergic receptor (Homo sapiens) (UniProt P07550); test: Inhibition of beta-2 adrenergic receptor at 10 uM by NIMH PDSP
D(1A) dopamine receptor = D(1A) dopamine receptor (Homo sapiens, UniProt P21728); test: Inhibition of D1 dopamine receptor at 10 uM by NIMH PDSP
[14] = molecular target: 5-hydroxytryptamine receptor 2A (Homo sapiens) (UniProt P28223); test: Inhibition of 5-HT2A receptor at 10 uM by NIMH PDSP
Histamine H1 receptor = Histamine H1 receptor (Homo sapiens, UniProt P35367); test: Inhibition of H1 receptor by NIMH PDSP
[15] = molecular target: T4, Alpha-2C adrenergic receptor (Homo sapiens) (UniProt P18825); test: Inhibition of alpha-2C adrenergic receptor at 10 uM by NIMH PDSP
T4 sequence (whole entry): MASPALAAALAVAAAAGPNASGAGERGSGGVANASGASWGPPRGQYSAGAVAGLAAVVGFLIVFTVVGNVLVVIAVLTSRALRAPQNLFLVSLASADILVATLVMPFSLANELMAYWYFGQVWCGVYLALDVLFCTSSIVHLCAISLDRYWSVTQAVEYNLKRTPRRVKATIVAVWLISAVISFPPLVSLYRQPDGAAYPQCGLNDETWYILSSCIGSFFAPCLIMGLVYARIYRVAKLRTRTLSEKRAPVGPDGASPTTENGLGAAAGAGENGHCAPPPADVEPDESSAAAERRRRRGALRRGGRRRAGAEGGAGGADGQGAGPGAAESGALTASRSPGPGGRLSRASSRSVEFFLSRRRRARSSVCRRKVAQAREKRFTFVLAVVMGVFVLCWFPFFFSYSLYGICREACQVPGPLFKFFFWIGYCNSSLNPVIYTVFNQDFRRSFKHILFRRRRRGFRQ

Sequence of D(1B) dopamine receptor (Homo sapiens) (P21918 whole entry): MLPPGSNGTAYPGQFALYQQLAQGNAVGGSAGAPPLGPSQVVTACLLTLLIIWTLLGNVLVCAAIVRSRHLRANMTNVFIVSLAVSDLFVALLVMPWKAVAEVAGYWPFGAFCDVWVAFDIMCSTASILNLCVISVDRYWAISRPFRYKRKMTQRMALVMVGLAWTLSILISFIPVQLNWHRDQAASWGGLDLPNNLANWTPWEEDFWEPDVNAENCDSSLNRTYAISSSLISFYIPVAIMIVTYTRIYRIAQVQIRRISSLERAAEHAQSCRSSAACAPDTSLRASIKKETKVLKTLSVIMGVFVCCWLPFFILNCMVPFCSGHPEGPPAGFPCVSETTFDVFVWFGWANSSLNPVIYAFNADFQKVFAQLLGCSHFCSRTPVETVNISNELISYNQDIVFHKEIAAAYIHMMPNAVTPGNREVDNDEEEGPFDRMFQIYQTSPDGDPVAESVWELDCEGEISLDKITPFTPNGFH
Sequence of Muscarinic acetylcholine receptor M3 (Homo sapiens) (P20309 whole entry, looked up): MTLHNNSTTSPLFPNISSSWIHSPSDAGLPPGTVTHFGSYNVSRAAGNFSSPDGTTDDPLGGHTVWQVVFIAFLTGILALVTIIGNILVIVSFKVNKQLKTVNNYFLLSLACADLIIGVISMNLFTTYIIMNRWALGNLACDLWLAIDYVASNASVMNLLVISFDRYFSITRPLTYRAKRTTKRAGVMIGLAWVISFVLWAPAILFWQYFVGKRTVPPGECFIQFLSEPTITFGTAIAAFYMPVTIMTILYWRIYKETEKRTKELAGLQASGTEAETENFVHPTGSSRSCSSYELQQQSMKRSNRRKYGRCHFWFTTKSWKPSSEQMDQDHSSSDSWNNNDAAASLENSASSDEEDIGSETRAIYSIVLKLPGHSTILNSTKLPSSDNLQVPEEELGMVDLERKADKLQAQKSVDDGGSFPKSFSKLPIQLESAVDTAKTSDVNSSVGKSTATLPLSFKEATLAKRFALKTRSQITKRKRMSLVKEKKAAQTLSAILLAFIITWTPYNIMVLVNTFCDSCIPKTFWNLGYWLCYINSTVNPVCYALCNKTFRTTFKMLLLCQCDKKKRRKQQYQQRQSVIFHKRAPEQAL
Sequence of D(1A) dopamine receptor (P21728 whole entry): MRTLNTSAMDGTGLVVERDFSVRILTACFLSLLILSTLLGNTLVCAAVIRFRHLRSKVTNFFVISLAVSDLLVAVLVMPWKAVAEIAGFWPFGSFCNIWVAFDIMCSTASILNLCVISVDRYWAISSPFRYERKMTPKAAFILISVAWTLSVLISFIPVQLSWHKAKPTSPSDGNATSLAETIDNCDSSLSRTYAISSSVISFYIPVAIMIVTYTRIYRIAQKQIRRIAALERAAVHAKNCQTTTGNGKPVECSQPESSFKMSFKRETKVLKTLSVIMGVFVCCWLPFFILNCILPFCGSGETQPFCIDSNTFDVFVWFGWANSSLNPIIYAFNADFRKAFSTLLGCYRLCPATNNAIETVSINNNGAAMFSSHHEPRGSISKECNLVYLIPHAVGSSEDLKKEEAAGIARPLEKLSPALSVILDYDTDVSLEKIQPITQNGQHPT
Sequence of Histamine H4 receptor (Homo sapiens) (Q9H3N8 whole entry): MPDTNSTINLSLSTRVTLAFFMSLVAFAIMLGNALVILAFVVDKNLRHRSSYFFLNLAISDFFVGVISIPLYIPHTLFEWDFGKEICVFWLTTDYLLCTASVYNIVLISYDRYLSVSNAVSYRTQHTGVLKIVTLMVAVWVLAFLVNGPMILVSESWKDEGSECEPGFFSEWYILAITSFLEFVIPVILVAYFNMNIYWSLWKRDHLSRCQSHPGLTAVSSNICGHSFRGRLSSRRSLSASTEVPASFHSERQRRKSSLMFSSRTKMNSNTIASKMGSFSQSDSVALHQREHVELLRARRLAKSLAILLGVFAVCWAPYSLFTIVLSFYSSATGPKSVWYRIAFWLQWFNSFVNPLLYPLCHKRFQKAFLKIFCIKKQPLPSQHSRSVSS
Sequence of Beta-2 adrenergic receptor (Homo sapiens) (P07550 whole entry, looked up): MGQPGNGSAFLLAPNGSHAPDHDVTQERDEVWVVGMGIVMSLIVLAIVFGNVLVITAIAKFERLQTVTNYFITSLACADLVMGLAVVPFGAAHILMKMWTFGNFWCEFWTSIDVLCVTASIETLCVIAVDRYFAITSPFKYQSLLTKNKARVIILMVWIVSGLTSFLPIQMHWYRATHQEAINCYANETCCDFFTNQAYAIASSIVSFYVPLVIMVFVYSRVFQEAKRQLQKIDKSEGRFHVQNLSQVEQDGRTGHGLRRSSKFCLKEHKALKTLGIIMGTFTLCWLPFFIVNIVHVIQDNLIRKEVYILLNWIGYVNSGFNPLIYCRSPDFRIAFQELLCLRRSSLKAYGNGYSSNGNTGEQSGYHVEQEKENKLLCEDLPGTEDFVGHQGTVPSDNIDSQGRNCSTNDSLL
Sequence of 5-hydroxytryptamine receptor 1D (Homo sapiens) (P28221 whole entry): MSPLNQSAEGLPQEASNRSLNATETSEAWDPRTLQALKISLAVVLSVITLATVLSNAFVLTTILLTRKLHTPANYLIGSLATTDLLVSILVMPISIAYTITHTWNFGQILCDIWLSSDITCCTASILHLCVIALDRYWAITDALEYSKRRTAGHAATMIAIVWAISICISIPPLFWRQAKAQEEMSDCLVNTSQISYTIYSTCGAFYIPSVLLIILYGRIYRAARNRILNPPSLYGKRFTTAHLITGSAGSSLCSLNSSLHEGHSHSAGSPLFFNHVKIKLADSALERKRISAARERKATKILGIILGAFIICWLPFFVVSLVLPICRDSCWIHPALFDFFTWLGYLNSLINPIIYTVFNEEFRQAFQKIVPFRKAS
Sequence of Sigma non-opioid intracellular receptor 1 (Q60492 whole entry): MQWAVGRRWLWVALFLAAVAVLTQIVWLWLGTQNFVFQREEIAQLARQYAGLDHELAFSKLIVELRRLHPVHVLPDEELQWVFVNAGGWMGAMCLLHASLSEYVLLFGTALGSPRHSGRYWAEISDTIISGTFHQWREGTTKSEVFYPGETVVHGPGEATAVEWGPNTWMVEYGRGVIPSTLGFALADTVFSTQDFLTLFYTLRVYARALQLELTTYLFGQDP
Sequence of Histamine H1 receptor (P35367 whole entry): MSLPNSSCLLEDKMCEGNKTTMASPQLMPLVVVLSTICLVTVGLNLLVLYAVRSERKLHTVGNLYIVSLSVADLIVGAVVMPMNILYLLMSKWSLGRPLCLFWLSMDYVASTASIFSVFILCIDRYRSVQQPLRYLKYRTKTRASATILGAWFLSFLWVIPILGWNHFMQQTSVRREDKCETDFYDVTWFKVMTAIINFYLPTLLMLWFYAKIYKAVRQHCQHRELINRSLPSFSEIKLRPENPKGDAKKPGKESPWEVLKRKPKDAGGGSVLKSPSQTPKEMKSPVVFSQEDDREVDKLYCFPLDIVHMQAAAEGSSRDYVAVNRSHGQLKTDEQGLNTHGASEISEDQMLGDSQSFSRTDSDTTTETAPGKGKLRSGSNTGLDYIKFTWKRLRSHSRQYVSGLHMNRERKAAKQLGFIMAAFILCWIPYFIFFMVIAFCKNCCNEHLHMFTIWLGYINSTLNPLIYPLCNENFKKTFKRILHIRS
Sequence of Histamine H2 receptor (Homo sapiens) (P25021 whole entry): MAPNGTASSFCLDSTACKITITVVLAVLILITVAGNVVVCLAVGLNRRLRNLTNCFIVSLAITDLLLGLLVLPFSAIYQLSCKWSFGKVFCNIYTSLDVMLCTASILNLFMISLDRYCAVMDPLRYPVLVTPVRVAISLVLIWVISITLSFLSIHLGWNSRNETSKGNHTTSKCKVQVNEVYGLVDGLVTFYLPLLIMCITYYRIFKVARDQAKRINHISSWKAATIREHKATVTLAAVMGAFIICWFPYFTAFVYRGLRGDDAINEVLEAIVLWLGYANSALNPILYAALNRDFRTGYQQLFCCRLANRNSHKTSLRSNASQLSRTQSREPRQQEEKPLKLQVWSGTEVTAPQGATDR
Sequence of 5-hydroxytryptamine receptor 2A (Homo sapiens) (P28223 whole entry): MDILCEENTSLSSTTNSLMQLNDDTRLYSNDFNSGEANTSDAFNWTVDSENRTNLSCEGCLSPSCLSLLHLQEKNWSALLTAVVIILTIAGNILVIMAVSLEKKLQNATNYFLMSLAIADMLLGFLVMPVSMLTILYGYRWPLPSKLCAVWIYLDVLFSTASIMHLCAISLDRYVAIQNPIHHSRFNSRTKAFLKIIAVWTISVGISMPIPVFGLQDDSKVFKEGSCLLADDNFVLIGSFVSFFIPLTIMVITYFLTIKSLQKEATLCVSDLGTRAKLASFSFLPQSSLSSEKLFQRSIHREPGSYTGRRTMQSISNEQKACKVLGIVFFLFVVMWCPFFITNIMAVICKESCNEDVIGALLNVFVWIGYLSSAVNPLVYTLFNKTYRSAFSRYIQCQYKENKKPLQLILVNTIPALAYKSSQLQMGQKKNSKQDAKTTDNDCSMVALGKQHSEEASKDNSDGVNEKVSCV
Sequence of 5-hydroxytryptamine receptor 5A (Homo sapiens) (P47898 whole entry): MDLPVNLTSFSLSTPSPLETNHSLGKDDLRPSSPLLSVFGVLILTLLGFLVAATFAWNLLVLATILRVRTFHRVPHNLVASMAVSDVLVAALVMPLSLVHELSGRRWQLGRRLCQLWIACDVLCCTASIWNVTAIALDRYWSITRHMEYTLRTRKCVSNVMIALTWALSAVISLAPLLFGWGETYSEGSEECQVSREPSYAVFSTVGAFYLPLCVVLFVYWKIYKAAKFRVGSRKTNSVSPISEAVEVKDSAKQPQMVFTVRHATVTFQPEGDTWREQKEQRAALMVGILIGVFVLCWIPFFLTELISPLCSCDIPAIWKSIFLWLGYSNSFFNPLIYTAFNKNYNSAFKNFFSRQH

Compound | inhibition [1] | inhibition [2] | inhibition [3] | inhibition [4] | inhibition [5] | inhibition [6] | inhibition [7] | inhibition [8] | Ki [9] | Ki [10] | inhibition [11] | inhibition [12] | inhibition [13] | inhibition (D(1A) dopamine receptor) | inhibition [14] | Ki (Histamine H1 receptor) | inhibition [15]
OC12CC3CC(CC(C3)N1Cc1cccc(F)c1)C2 (racemic) | < 50% | < 50% | < 50% | < 50% | < 50% | < 50% | < 50% | < 50% | 0.862 µM | 0.705 µM | < 50% | < 50% | < 50% | < 50% | < 50% | < 10 µM | < 50%
Fc1cccc(CN2C3CC4CC(C3)CC2C4)c1 | < 50% | < 50% | < 50% | < 50% | < 50% | < 50% | < 50% | < 50% | 0.022 µM | 0.132 µM | < 50% | < 50% | < 50% | – | < 50% | < 10 µM | < 50%
OC12CC3CC(CC(C3)N1Cc1ccccc1)C2 (racemic) | < 50% | < 50% | < 50% | < 50% | < 50% | < 50% | < 50% | < 50% | 1.45 µM | 1.02 µM | < 50% | < 50% | < 50% | < 50% | < 50% | < 10 µM | < 50%
c1ccc(CN2C3CC4CC(C3)CC2C4)cc1 | < 50% | < 50% | < 50% | < 50% | < 50% | < 50% | < 50% | < 50% | 0.029 µM | 0.095 µM | < 50% | < 50% | < 50% | < 50% | < 50% | < 10 µM | < 50%
